Where “and” joins values, the source holds several entries; their conditions need not be identical. Equal values may be shown once.
Tested on: SEAP and Luciferase expression in HEK293T cells
Experiment: SIMO designer cells (AIR-1/2-GEMS + CDH-1/2-TF)
Assay type: cell-based
Design: Bottom (best-fit value) / Top (best-fit value) / Span (best-fit value): unit not given here
Description: Fig. 5 Orthogonal chemical switches enable implementation of multi-input multi-output control modes in mammalian cells. a Scheme of multi-inputs multi-outputs (MIMO) designer cells where two drugs control two different outputs. b, c Cells were co-transfected with AIR-1/2-GEMS and CDH-3-TF regulate SEAP and Luciferase expression, respectively. […] AIR-1/2-GEMS coupled with SEAP expression circuits were co-transfected with CDH-1/2-TF circuits which control the Luciferase production. Respective drug concentrations ranged from 0.001 nM to 1 µM. All values presented are mean ± s.d. of three replicates and curves were fitted by four-parameters nonlinear regression. b, c, e, f, h, i Source data are available in the source data file.
Finally, we engineered SIMO cells (Fig. 5g) using two designed switches that produce ON and OFF responses upon exposure to the same drug. We transfected cells with combinations of AIR-GEMS and CDH-TFs which controlled the expression of the reporter proteins SEAP and Luciferase, respectively. […] Therefore, computational design expanded the repertoire of protein switches controlled by the same compounds that can be used to simultaneous turn ON and OFF synergistic outputs. […]
AIR-1-GEMS coupled with SEAP expression circuits (i) and CDH-1-TF circuits which control the Luciferase production (j). j-k) Quantification of SEAP and Luciferase activities under Drug-2. AIR-2-GEMS coupled with SEAP expression circuits (k) and CDH-2-TF circuits which control the Luciferase production (l). b-k) Each data point represents the mean of n = 3 biological replicates, and the dose-dependent curve were fitted using four-parameter nonlinear regression.

[1] = Fig S13j, AIR-2-GEMS control SEAP expression only, Drug-2 3.16 nM
[2] = Fig S13j, AIR-2-GEMS control SEAP expression only, Drug-2 10 nM
[3] = Fig S13j, AIR-2-GEMS control SEAP expression only, Drug-2 100 nM
[4] = Fig S13j, AIR-2-GEMS control SEAP expression only, Drug-2 316 nM
[5] = Fig S13j, AIR-2-GEMS control SEAP expression only, Drug-2 1000 nM
[6] = sheet Figure5i, SEAP, four-parameter fit

CC1(C)CCC(CN2CCN(c3ccc(C(=O)NS(=O)(=O)c4ccc(NCC5CCOCC5)c([N+](=O)[O-])c4)c(Oc4cnc5[nH]ccc5c4)c3)CC2)=C(c2ccc(Cl)cc2)C1 [Drug-2, Venetoclax]
SEAP and Luciferase outputs in SIMO cells (0.001 nM to 1 µM): simultaneously activated SEAP production and suppressed the expression of Luciferase | SEAP (Fig5i, turn ON (title: via AIR-1-GEMS), 0.001 nM): 11.0539 U/L and 12.4374 U/L and 11.7528 U/L | SEAP (Fig5i, turn ON (title: via AIR-1-GEMS), 0.005 nM): 14.3953 U/L and 10.7601 U/L and 8.34 U/L | SEAP (Fig5i, turn ON (title: via AIR-1-GEMS), 0.05 nM): 12.0377 U/L and 10.3343 U/L and 7.481 U/L | SEAP (Fig5i, turn ON (title: via AIR-1-GEMS), 0.5 nM): 13.1482 U/L and 9.328 U/L and 7.802 U/L | SEAP (Fig5i, turn ON (title: via AIR-1-GEMS), 1 nM): 16.8267 U/L and 13.7148 U/L and 13.9654 U/L | SEAP (Fig5i, turn ON (title: via AIR-1-GEMS), 5 nM): 12.4083 U/L and 18.0777 U/L and 19.7017 U/L | SEAP (Fig5i, turn ON (title: via AIR-1-GEMS), 10 nM): 32.3034 U/L and 32.696 U/L and 36.5671 U/L | SEAP (Fig5i, turn ON (title: via AIR-1-GEMS), 50 nM): 48.8555 U/L | SEAP (Fig5i, turn ON (title: via AIR-1-GEMS), 100 nM): 61.1746 U/L and 72.5404 U/L | SEAP (Fig5i, turn ON (title: via AIR-1-GEMS), 500 nM): 94.0018 U/L and 86.0577 U/L | SEAP (Fig5i, turn ON (title: via AIR-1-GEMS), 1000 nM): 105.374 U/L and 86.4725 U/L | SEAP (Fig S13j, AIR-2-GEMS control SEAP expression only, Drug-2 0.01 nM): 269 U/L and 225 U/L and 167 U/L | SEAP (Fig S13j, AIR-2-GEMS control SEAP expression only, Drug-2 1 nM): 225 U/L and 173 U/L and 167 U/L | Luciferase [1]: 18.3864 RLU and 14.0122 RLU and 11.0547 RLU | SEAP [1]: 199 U/L and 215 U/L and 123 U/L | Luciferase [2]: 59.3143 RLU and 64.1927 RLU and 53.9121 RLU | SEAP [2]: 143 U/L and 145 U/L and 125 U/L | SEAP (Fig S13j, AIR-2-GEMS control SEAP expression only, Drug-2 31.6 nM): 149 U/L and 123 U/L | Luciferase [3]: 277.707 RLU and 262.611 RLU and 223.323 RLU | SEAP [3]: 157 U/L and 127 U/L and 107 U/L | Luciferase [4]: 280.311 RLU and 280.175 RLU and 202.801 RLU | SEAP [4]: 177 U/L and 117 U/L and 123 U/L | Luciferase [5]: 203.844 RLU and 222.434 RLU and 194.549 RLU | SEAP [5]: 191 U/L and 169 U/L and 179 U/L | SEAP (Fig S13k, CDH-2-TF control Luciferase expression only, Drug-2 0.01 nM): 77283 U/L and 94282 U/L and 94549 U/L | SEAP (Fig S13k, CDH-2-TF control Luciferase expression only, Drug-2 0.1 nM): 83949 U/L and 102019 U/L and 91551 U/L | SEAP (Fig S13k, CDH-2-TF control Luciferase expression only, Drug-2 1 nM): 97527 U/L and 93132 U/L and 98408 U/L | SEAP (Fig S13k, CDH-2-TF control Luciferase expression only, Drug-2 3.16 nM): 96858 U/L and 87221 U/L and 87443 U/L | SEAP (Fig S13k, CDH-2-TF control Luciferase expression only, Drug-2 10 nM): 78643 U/L and 87229 U/L and 90599 U/L | SEAP (Fig S13k, CDH-2-TF control Luciferase expression only, Drug-2 31.6 nM): 80585 U/L and 86321 U/L and 73406 U/L | SEAP (Fig S13k, CDH-2-TF control Luciferase expression only, Drug-2 100 nM): 64234 U/L and 74136 U/L and 75517 U/L | SEAP (Fig S13k, CDH-2-TF control Luciferase expression only, Drug-2 316 nM): 47807 U/L and 51555 U/L and 52806 U/L | SEAP (Fig S13k, CDH-2-TF control Luciferase expression only, Drug-2 1000 nM): 34743 U/L and 30667 U/L and 26001 U/L | IC50 (Homo sapiens, HEK-293T, sheet Figure5i, SEAP column (turn ON), four-parameter fit, given as IC50, read-out: IC50 (best-fit value)): 5.24 nM | Bottom (best-fit value) [6]: 28.34 | HillSlope (best-fit value) [6]: 1.403 | Span (best-fit value) [6]: 390.7 | Top (best-fit value) [6]: 419 | logIC50 (best-fit value) (sheet Figure5i, SEAP, four-parameter fit, drug in nM): 0.7193
